Data published in patent publication US20050136015A1, “Topical use of halosalicylic acid derivatives” (priority 2003, published 2005).

Columns and labels:
[1] = tested on: Aspergillus niger; assay: Zone of Inhibition Test; format: cell-based; details: A. niger, 1000 μl, isopropyl palmitate solvent
[2] = tested on: skin surface; assay: Exfoliation (desquamation) activity, D-SQUAME skin surface sampling discs; format: in vivo; details: for D-SQUAME Score: scoring scale 0 to 5
Source text: D-SQUAME skin surface sampling Discs (CuDerm Corporation) were employed. The disc was applied to a clean, dry skin surface and pressed firmly for a few seconds using the thumb or fingertips. The disc was then transferred to a black square on the storage card. The disc was viewed at an angle with strong light and compared with 5 reference patterns provided by CuDerm Corporation. Very dry skin produces a heavy amount of scaling similar to pattern 5. Normal skin produces a few areas of small clumps of cells or a fine even single layer of cells. The scoring scale employed was as follows: [table] […] The vehicle was tested, as a control. The vehicle (ANEW All-In-One SPF-15 Self-Adjusting Perfecting Creme base without the glycolic acid) employed was the same in all cases, only the test compound(s) differed.

[3] = tested on: Staphylococcus aureus; assay: Zone of Inhibition Test; format: cell-based; details: S. aureus, 1000 μl, isopropyl palmitate solvent
[4] = tested on: Pseudomonas aeruginosa; assay: Zone of Inhibition Test; format: cell-based; details: P. aeruginosa, 1000 μl, isopropyl palmitate solvent
[5] = Skin irritation (PII) of test formulation; format: in vivo
[6] = tested on: Staphylococcus epidermidis; assay: Zone of Inhibition Test; format: cell-based; details: S. epidermidis, 1000 μl, isopropyl palmitate solvent
[7] = tested on: Propionibacterium acnes; assay: Zone of Inhibition Test; format: cell-based; details: for Diameter of Zone of Inhibition: P. acnes, 1000 μl, isopropyl palmitate solvent
[8] = tested on: Escherichia coli; assay: Zone of Inhibition Test; format: cell-based; details: E. coli, 1000 μl, isopropyl palmitate solvent
[9] = tested on: Candida albicans; assay: Zone of Inhibition Test; format: cell-based; details: C. albicans, 1000 μl, isopropyl palmitate solvent
[10] = tested on: Salmonella typhimarium; details: literature report; cited from earlier work
[11] = tested on: all of the test microorganisms; assay: MLC test, summary over all test microorganisms; format: cell-based; details: against all of the test microorganisms of Table 1
[12] = 0.5% active in ANEW creme base vehicle
[13] = 0.5% active in ANEW creme base vehicle without glycolic acid

O=C(O)c1cc(Cl)ccc1O [5-Chlorosalicylic Acid, 5-chlorosalicylic acid]
Diameter of Zone of Inhibition ([1]; 0.5%): 0 Millimeters | Diameter of Zone of Inhibition ([1]; 1.0%): 3.38 Millimeters | D-SQUAME Score [2, 12]: 2.44 | Exfoliation activity compared with 0.5% salicylic acid ([2]; D-SQUAME, Table 5): significantly more exfoliating | Exfoliation activity compared with 1.0% salicylic acid ([2]; D-SQUAME, Table 5): equivalent in exfoliation activity | Exfoliation activity compared with 2.0% salicylic acid ([2]; D-SQUAME, Table 5): equivalent in exfoliation activity | Exfoliation activity compared with the base vehicle (containing no CLSA or SA) ([2]; D-SQUAME, Table 5): significantly more exfoliating | Exfoliation activity compared with the combination of 0.5% chlorosalicylic acid/0.5% salicylic acid ([2]; D-SQUAME, Table 5): equivalent in exfoliation activity | Diameter of Zone of Inhibition ([3]; 0.5%): 0 Millimeters | Diameter of Zone of Inhibition ([3]; 1.0%): 3.04 Millimeters | Diameter of Zone of Inhibition ([4]; 0.5%): 0 Millimeters | Diameter of Zone of Inhibition ([4]; 1.0%): 0 Millimeters | PII (skin irritation) [5, 13]: 0.00 | Diameter of Zone of Inhibition ([6]; 0.5%): 3.59 Millimeters | Diameter of Zone of Inhibition ([6]; 1.0%): 13.15 Millimeters | Diameter of Zone of Inhibition ([7]; 0.5%): 4.87 Millimeters | Diameter of Zone of Inhibition ([7]; 1.0%): 17.62 Millimeters | Activity against Propionibacterium acnes compared with salicylic acid ([7]; results of Tables 2 through 4): more active | Diameter of Zone of Inhibition ([8]; 0.5%): 0 Millimeters | Diameter of Zone of Inhibition ([8]; 1.0%): 0 Millimeters | Diameter of Zone of Inhibition ([9]; 0.5%): 0 Millimeters | Diameter of Zone of Inhibition ([9]; 1.0%): 2.96 Millimeters | Mutagenic activity [10]: non-mutagenic

O=C(O)c1ccccc1O [Salicylic Acid, salicylic acid]
Diameter of Zone of Inhibition ([1]; 0.83%): 0 Millimeters | Diameter of Zone of Inhibition ([1]; 1.66%): 6.72 Millimeters | D-SQUAME Score [2, 12]: 1.97 | D-SQUAME Score ([2]; 1% active in ANEW creme base vehicle): 2.28 | D-SQUAME Score ([2]; 2.% active in ANEW creme base vehicle): 2.56 | Diameter of Zone of Inhibition ([3]; 0.83%): 0 Millimeters | Diameter of Zone of Inhibition ([3]; 1.66%): 6.38 Millimeters | Bacteriocidal activity (in words) [11]: bacteriocidal against all of the test microorganisms | Diameter of Zone of Inhibition ([4]; 0.83%): 0 Millimeters | Diameter of Zone of Inhibition ([4]; 1.66%): 0 Millimeters | PII (skin irritation) [5, 13]: 0.00 | PII (skin irritation) ([5]; 1% active in ANEW creme base vehicle without glycolic acid): 0.00 | PII (skin irritation) ([5]; 2.% active in ANEW creme base vehicle without glycolic acid): 0.00 | Diameter of Zone of Inhibition ([6]; 0.83%): 4.5 Millimeters | Diameter of Zone of Inhibition ([6]; 1.66%): 13.62 Millimeters | Diameter of Zone of Inhibition ([7]; 0.83%): 0 Millimeters | Diameter of Zone of Inhibition ([7]; 1.66%): 15.39 Millimeters | Diameter of Zone of Inhibition ([8]; 0.83%): 0 Millimeters | Diameter of Zone of Inhibition ([8]; 1.66%): 3.67 Millimeters | Diameter of Zone of Inhibition ([9]; 0.83%): 4.6 Millimeters | Diameter of Zone of Inhibition ([9]; 1.66%): 11.16 Millimeters
